Data published in patent publication US20040204577A1, “Novel peptide-forming enzyme gene” (Ajinomoto Co., Inc., priority 2003, published 2004).
Marks after values point to notes of the source that are not given here. Where a SMILES comes first, the peptide text is derived from it. Where no end group is shown, it is not given here. [ ]: non-standard residue; d: D form.

Assays:
[1] = tested on: enzyme derived from Sphingobacterium sp. strain FERM BP-8124 (SP-Sepharose HP fraction enzyme); assay: Enzyme substrate specificity (11), (12): peptide production; type: biochemical; details: carboxy component 100 mM, amine component 150 mM, 0.33 units enzyme, pH 9.0, 25° C., 1.5 hours
From the text: Substrate specificity was examined for enzyme derived from Sphingobacterium sp. strain FERM BP-8124 (Depositary institution: the independent administrative corporation, National Institute of Advanced Industrial Science and Technology, International Patent Organism Depositary, Address of depositary institution: Chuo Dai-6, 1-1 Higashi 1-Chome, Tsukuba-shi, Ibaraki-ken, Japan, International deposit date: […] The amounts of various peptides formed in this reaction are shown in Table 15. The “+” mark indicates those peptides for which production was confirmed but which were unable to be quantified due to the absence of a standard, while “tr” indicates a trace amount. Furthermore, Tween-80 was added to the reaction system to a final concentration of 0.1% in the case of using L-Tyr-OMe. In addition, hydrochloride salts were used for all carboxy components. Substrate specificity with respect to oligopeptide production was examined for enzyme derived from Sphingobacterium sp. strain FERM BP-8124 (Depositary institution: the independent administrative corporation, National Institute of Advanced Industrial Science and Technology, International Patent Organism Depositary, Address of depositary institution: Chuo Dai-6, 1-1 Higashi 1-Chome, Tsukuba-shi, Ibaraki-ken, Japan, International deposit date: […] The amounts of each oligopeptide formed in this reaction are shown in Table 16. Furthermore, hydrochloride salts were used for all the carboxy components.

[2] = tested on: peptide-forming enzyme (Mono S fraction enzyme); assay: Enzyme substrate specificity (1)-(10), (13), (14): peptide production; type: biochemical, Empedobacter brevis; design: key to Produced peptide (oligopeptide): +: those for which production was confirmed but which were unable to be quantified due to the absence of a standard; a trace amount; key to Formed peptide: +: those peptides for which production was confirmed but which were unable to be quantified due to the absence of a standard; a trace amount; details: pH 9.0, 25° C., 3 hours
Experimental: Ester specificity was examined in the case of using L-amino acid ester for the carboxy component. 2 μl of the same enzyme fraction as used in Example 5 was added to 100 μl of 100 mM borate buffer (pH 9.0) containing the carboxy components indicated in Table 4 at 100 mM, 200 mM L-glutamine and 10 mM EDTA, and allowed to react at 25° C. for 2 hours. HCl represents hydrochloride in Table 4.
Peptide production was examined in the case of using L-alanine methyl ester for the carboxy component and using various L-amino acids for the amine component.
Peptide production was examined in the case of using various types of L-amino acid methyl esters for the carboxy component and using L-glutamine for the amine component. 2 μl of the same enzyme fraction as used in Example 5 was added to 100 μl of 100 mM borate buffer (pH 9.0) containing the L-amino acid methyl ester hydrochloride salts (AA-OMe.HCl) shown in Table 6 at 100 mM, 150 mM L-glutamine and 10 mM EDTA, and allowed to react at 25° C. for 3 hours. […] Furthermore, Tween-80 was added to the reaction system to a final concentration of 0.1% in the case of using L-Trp-OMe and L-Tyr-OMe.
Peptide production was examined in the case of using various L-amino acid methyl esters for the carboxy component and various L-amino acids for the amine component. 2 μl of the same enzyme fraction as used in Example 5 was added to 100 μl of 100 mM borate buffer (pH 9.0) containing the L-amino acid methyl ester hydrochloride salts (AA-OMe.HCl) shown in Table 7 at 100 mM, the L-amino acids shown in Table 7 at 150 mM and 10 mM EDTA, and allowed to react at 25° C. for 3 hours. The “tr” indicates a trace amount. Furthermore, Tween-80 was added to the reaction system to a final concentration of 0.1% in the case of using L-Trp-OMe.
Peptide production was examined in the case of using the L or D forms of various amino acid methyl esters for the carboxy component, and the L or D forms of various amino acids for the amine component. 2 μl of the same enzyme fraction as used in Example 5 was added to 100 μl of 100 mM borate buffer (pH 9.0) containing the various amino acid methyl ester hydrochloride salts (AA-OMe HCl) shown in Table 8 at 100 mM, the various amino acids shown in Table 8 at 150 mM and 10 mM EDTA, and allowed to react at 25° C. for 3 hours. The “tr” indicates a trace amount.
Peptide production was examined using various L-amino acid amides for the carboxy component, and various L-amino acids for the amine component. 2 μl of the same enzyme fraction as that used in Example 5 was added to 100 μl of 100 mM borate buffer (pH 9.0) containing the L-amino acid amide hydrochloride salt (M-NH2.HCl) shown in Table 9 at 100 mM, the L-amino acids shown in Table 9 at 150 mM and 10 mM EDTA, and allowed to react at 25° C. for 3 hours.
Peptide production was examined in the case of using various L-alanine methyl esters for the carboxy component and C-protected L-amino acids for the amine component. 2 μl of the same enzyme fraction as used in Example 5 was added to 100 μl of 100 mM borate buffer (pH 9.0) containing the L-alanine methyl ester hydrochloride hydrochloride salt (Ala-OMe.HCl) shown in Table 10 at 100 mM, the L-amino acid amide hydrochloride salts shown in Table 10 at 150 mM and 10 mM EDTA, and allowed to react at 25° C. for 3 hours.
Peptide production was examined in the case of using various amino acid methyl esters for the carboxy component and methylamine for the amine component. 2 μl of the same enzyme fraction as used in Example 5 was added to 100 μl of 100 mM borate buffer (pH 9.0) containing the amino acid methyl ester hydrochloride salt (M-OMe.HCl) shown in Table 11 at 100 mM, the methylamine shown in Table 11 at 150 mM and 10 mM EDTA, and allowed to react at 25° C. for 3 hours.
Peptide production was examined in the case of using […] for the carboxy component or β-amino acid for the amine component.

[3] = β-amino acid ester or β-amino acid, carboxy component 100 mM, amine component 150 mM
[4] = L-amino acid methyl ester hydrochloride 100 mM, 150 mM L-glutamine
[5] = L-amino acid ester 100 mM, peptide (amine component) 150 mM

Compound: C[C@H](N)C(=O)N[C@@H](Cc1ccccc1)C(N)=O [L-Ala-L-Phe-NH2]
- Produced peptide (Table 15-4) ([1]; amides and methylamine): 27.1 mM
- Formed peptide ([2]; L-alanine methyl ester hydrochloride 100 mM, L-amino acid amide hydrochloride 150 mM): 12.2 mM

Compound: CSCC[C@H](NC(=O)[C@@H](N)CCSC)C(=O)O [L-Met-L-Met] (H-Met-Met-OH)
- Produced peptide (Table 15-3) [1]: 28.4 mM

Compound: CSCC[C@H](N)C(=O)N[C@@H](CO)C(=O)O [L-Met-L-Ser] (H-Met-Ser-OH)
- Produced peptide (Table 15-3) [1]: 25.3 mM

Compound: C[C@@H](O)[C@H](N)C(=O)NC(CC(=O)O)c1ccccc1 (stereo partly drawn) [Thr-β-Phe]
- Formed peptide [2, 3]: 1.4 mM

Compound: NC(=O)CC[C@H](NC(=O)[C@@H](N)CCC(=O)O)C(=O)O [α-L-Glu-L-Gln] (H-Glu-Gln-OH)
- Formed peptide [2, 4]: +

Compound: NCCC(=O)N[C@@H](CCC(N)=O)C(=O)O [β-Ala-L-Gln]
- Formed peptide [2, 3]: 0.6 mM

Compound: NCCC(=O)NC(CO)C(=O)O [β-Ala-L-Ser]
- Formed peptide [2, 3]: 3.2 mM

Compound: C[C@H](NC(=O)CCN)C(=O)O [β-Ala-L-α-Ala]
- Formed peptide [2, 3]: tr

Compound: NCCC(=O)NCCC(=O)O [β-Ala-β-Ala]
- Formed peptide [2, 3]: 0.2 mM

Compound: NC(=O)CC[C@H](NC(=O)C[C@H](N)C(=O)O)C(=O)O [β-L-Asp-L-Gln]
- Formed peptide [2, 4]: tr

Compound: NC(=O)CC[C@H](NC(=O)CC[C@H](N)C(=O)O)C(=O)O [γ-L-Glu-L-Gln]
- Formed peptide [2, 4]: +

Compound: Gly-Gly-L-Gln
- Produced peptide [2, 5]: 7.2 mM

Compound: Gly-Gly-L-Tyr-L-Ala
- Produced peptide [2, 5]: 44.2 mM

Compound: Gly-Phe-Met
- Produced peptide (oligopeptide) ([2]; amount of enzyme 1.0 unit): 13.3 mM

Compound: L-Ala-Gly-Gly-L-Phe-L-Met
- Produced peptide (oligopeptide) ([2]; amount of enzyme 0.2 unit): +

Compound: L-Ala-Gly-L-Phe
- Produced peptide (oligopeptide) ([2]; amount of enzyme 0.1 unit): +

Compound: L-Ala-L-Ala-L-Ala-L-Ala-L-Ala-L-Ala
- Produced peptide ([2]; carboxy component 10 mM, amine component 15 mM (low solubility)): 1.4* mM

Compound: L-Ala-L-Phe-L-Met
- Produced peptide (oligopeptide) ([2]; amount of enzyme 0.2 unit): +

Compound: L-Tyr-Gly-Gly-L-Phe-L-Met
- Produced peptide (oligopeptide) ([2]; amount of enzyme 1.0 unit): 2.7 mM

Compound: [dA]-Gly-Phe
- Produced peptide (oligopeptide) ([2]; amount of enzyme 0.1 unit): Tr
